Patent EP3050886A1, “Fluorescent dyes and dye precursors” (Bürkert Werke GmbH, priority 2015, dated 2016)

Experiments:
E. coli (EC18) = assay: Immunocapture of E. coli on beads and viability staining; format: cell-based, Escherichia coli; conditions: 10 µM, 30 min at 37 °C, Trypan Blue as contrast agent
Text: In a further test, antibodies anti-EC18 pAB and pro-fluorophores (5-POGDA, 5-POGAM) were used to immobilize E. coli (EC18) on beads and to reveal the immobilized bacteria respectively. Immunocapture of E. coli on beads was done in order to concentrate the fluorescent signal in order to improve the detection of the viable cells. In these experiments, Protein G Sepharose beads coated with goat-anti-rabbit immunoglobulins were used.
Environmental E. coli (E18) were cultivated and re-suspended in PBS as previously described. E. coli (EC18) (100 µl of suspension at 1*10^9 bacteria/ml) were incubated with rabbit anti-EC18 polyclonal antibodies (anti-EC18 pAb) or pre-immune control rabbit serum without anti-EC18 antibodies (PI-pAb) (dilution 1/20) for 1 h at room temperature. This control rabbit serum (PI-pAb) was obtained from a non-immunized animal (Eurogentec). It was used as a negative control. Bacteria were washed three times in PBS by centrifugation at 10000 rpm for 3 min at room temperature.
Proteine G Sepharose 4 Fast Flow beads were washed three times in Milli-Q water and three times in PBS by centrifugation at 2000 rpm for 2 min at 4 °C. Then 10 µl of sedimented beads were incubated with 20 µg of secondary antibody goat-anti-rabbit immunoglobulin (Thermo Scientific Pierce, 31210) in 500 µl of PBS with 0.001% of NP40 for 1h at room temperature with gentle mixing on a wheel. […]

[1] = system: Bacillus subtilis (B. subtilis) (ATCC 6633); assay: Bacteria staining test, fluorescence microscopy; format: cell-based; conditions: viable or dead B. subtilis, Fig. 3d
Experimental: (§1) Escherichia coli (E. coli) (ATCC 8739) and Bacillus subtilis (B. subtilis) (ATCC 6633) strains were routinely grown in Luria Bertani (LB) broth or on LB agar plates for 18h at 37 °C. Waterborne environmental bacteria such as Enterobacter cloacae (E. cloacae), Chryseobacterium indologenes (C. indologenes), Pseudomonas aeruginosa (P. aeruginosa), and E. coli (EC18) were purchased from Eurofins™. Environmental bacteria were grown in LB broth or on casein-peptone soymeal-peptone agar plates for 18h at 37 °C.
(§2) For the staining tests, E. coli (ATCC 8739 or EC18), E. cloacae, C. indologenes, P. aeruginosa and B. subtilis were cultivated in Luria-Bertani (LB) broth until exponential phase at 37°C with shaking at 300 rpm revolutions per minutes (rpm). Bacteria were harvested and washed in sterile phosphate buffer saline solution (PBS) at pH […] by centrifugation at 10000 rpm for 3 min at room temperature (21 ± 2 °C). Then the bacteria were resuspended in PBS at a concentration of 1·10^9 bacteria/ml. Bacteria concentration was calculated according to the turbidity measure at 660 nm (A660nm=1 correspond to bacterial suspension at ∼ 5·10^8 bacteria/ ml).
(§3) Dead bacterial suspensions at 1·10^9 bacteria/ml (negative controls) of these five species of bacteria were prepared individually by addition of 20 µl of bleach containing 2.6 % active chlorine. Bacteria were treated with bleach solution for 15 min. Dead bacteria were washed twice in sterile PBS by centrifugation at 10000 rpm for 3 min at room temperature. The culturability of the negative controls was assessed by plating 100 µl of bacterial suspension onto LB agar or Caso agar and incubating the plates at 37 °C for 72 h.
(§4) Bacteria (100 µl suspension at 1·10^9 bacteria/ml) were stained with 10 µM or 15 µM of pro-fluorophore (5-CFDA, 5-PFDAE, 5-PFDAT, 5-PFDA, 5-COGDA, 5-POGDA or 5-POGAM) in 200 µl of PBS solution containing 0.6 % of glutaraldehyde. Bacteria were incubated at 37 °C for 10 - 60 min with pro-fluorophore in darkness. After bacterial staining, they were washed and resuspended in 100 µl of PBS as described above.
(§5) Staining of the bacterial suspension was observed under a fluorescent microscope. These bacteria were imaged with a Leica DM5500 microscope equipped with FITC filter. […] Images were collected with a 100x objective. Fluorescence intensity of stained bacterial suspension was also measured with FluoroLog®-3 (Horiba Jobin Yvon) spectrofluorometer equipped with sample stirring. Samples were placed in fluorescence grade quartz cuvette having a volume of 1 ml. The excitation wavelength used was 488 nm and emission wavelength used was 517 nm. The same experiment was repeated three times (n = 3).

Pseudomonas aeruginosa = assay: Bacteria staining test, fluorescence microscopy; format: cell-based; conditions: for fluorescence of stained viable bacteria compared with 5-CFDA: viable P. aeruginosa; for staining of viable versus dead bacteria: viable or dead P. aeruginosa, Fig. 3c
Experimental: as §1, §2, §3, §4, §5

Enterobacter cloacae = assay: Bacteria staining test, fluorescence microscopy; format: cell-based; conditions: for fluorescence of stained viable bacteria compared with 5-CFDA: viable E. cloacae; for staining of viable versus dead bacteria: viable or dead E. cloacae, Fig. 3a
Experimental: as §1, §2, §3, §4, §5

[2] = system: Chryseobacterium indologenes; assay: Bacteria staining test, fluorescence microscopy; format: cell-based; conditions: for fluorescence of stained viable bacteria compared with 5-CFDA: viable C. indologenes; for staining of viable versus dead bacteria: viable or dead C. indologenes, Fig. 3b
Experimental: as §1, §2, §3, §4, §5

SMILES	fluorescence intensity of viable E. coli captured on beads compared with 5-CFDA (E. coli (EC18))	staining of viable versus dead bacteria [1]	fluorescence of stained viable bacteria compared with 5-CFDA (Pseudomonas aeruginosa)	staining of viable versus dead bacteria (Pseudomonas aeruginosa)	fluorescence of stained viable bacteria compared with 5-CFDA (Enterobacter cloacae)	staining of viable versus dead bacteria (Enterobacter cloacae)	fluorescence of stained viable bacteria compared with 5-CFDA [2]	staining of viable versus dead bacteria [2]
CCCNC(=O)c1ccc2c(c1)C(=O)OC21c2cc(F)c(OC(C)=O)cc2Oc2cc(OC(C)=O)c(F)cc21 [Example 5-POGDA, 2',7'-difluoro-3-oxo-5-(propylcarbamoyl)-3H-spiro[isobenzofuran-1,9'-xanthene]-3',6'-diyl diacetate]	still higher than the fluorescence intensity of E. coli stained with 5-CFDA	stained only viable	brighter fluorescence than 5-CFDA stained bacteria	stained only viable	brighter fluorescence than 5-CFDA stained bacteria	stained only viable	brighter fluorescence than 5-CFDA stained bacteria	stained only viable
CCCNC(=O)c1ccc2c(c1)C(=O)OC21c2cc(F)c(OCOC(C)=O)cc2Oc2cc(OCOC(C)=O)c(F)cc21 [Example 5-POGAM, 2',7'-difluoro-3-oxo-5-(propylcarbamoyl)-3H-spiroisobenzofuran-1,9'-xanthene-3',6'-diyl diacetoxymethyl ether]	still higher than the fluorescence intensity of E. coli stained with 5-CFDA	stained only viable	brighter fluorescence than 5-CFDA stained bacteria	stained only viable	brighter fluorescence than 5-CFDA stained bacteria	stained only viable	brighter fluorescence than 5-CFDA stained bacteria	stained only viable
